Results: ChEMBL document CHEMBL2073977, “Endotoxin downregulates rat hepatic ntcp gene expression via decreased activity of critical transcription factors” (J Clin Invest, 1998)

Key:
[1] = target: T1, Hepatic sodium/bile acid cotransporter (Rattus norvegicus, UniProt P26435); assay: TP_TRANSPORTER: Western in vivo, liver of SD rat; format: functional, organism-based, Sprague-Dawley
T1 sequence (P26435 whole entry): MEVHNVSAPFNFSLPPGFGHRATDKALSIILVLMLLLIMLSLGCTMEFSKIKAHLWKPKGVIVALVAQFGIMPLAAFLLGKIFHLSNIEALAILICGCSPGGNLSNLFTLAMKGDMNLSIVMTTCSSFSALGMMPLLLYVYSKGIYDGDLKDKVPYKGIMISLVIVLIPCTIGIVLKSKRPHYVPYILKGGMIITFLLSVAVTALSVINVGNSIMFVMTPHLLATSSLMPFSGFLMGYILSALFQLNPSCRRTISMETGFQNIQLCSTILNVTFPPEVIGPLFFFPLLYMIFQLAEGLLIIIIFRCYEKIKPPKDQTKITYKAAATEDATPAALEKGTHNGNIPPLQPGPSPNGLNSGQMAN

[2] = target: T1, Hepatic sodium/bile acid cotransporter; assay: TP_TRANSPORTER: Northern blot in vivo, liver of SD rat; format: functional, organism-based, Sprague-Dawley

With CCCCCCCCCCCCCC(=O)OC(CCCCCCCCCCC)CC(=O)OC1C(NC(=O)CC(CCCCCCCCCCC)OC(=O)CCCCCCCCCCC)C(OC2CC(OC(=O)CC(O)CCCCCCCCCCC)C(NC(=O)CC(O)CCCCCCCCCCC)C(O)O2)OC(CO)C1OP(=O)(O)O (configuration not stated) the Activity [1] was “inducer [Decrease]” and the Activity [2] was “inducer [Decrease]”.
